Values quoted from earlier work in patent US20030109512A1, “Use of 4-androstenediol and 4-androstenediol in a transdermal formulation to increase testosterone levels in humans” (priority 2001, published 2003).

System: estrogen levels
Settings: some studies indicate

## C[C@]12CCC(=O)C=C1CC[C@@H]1[C@@H]2CC[C@]2(C)C(=O)CC[C@@H]12 [androstenedione]
  effect on estrogen levels: causes elevation of estrogen levels
